In patent publication US10035790B2, “RORγ modulators” (BRISTOL-MYERS SQUIBB COMPANY, priority 2012, dated 2018):

Molecular target: T1, ligand binding domain of human RORγ (A262-S507) (Homo sapiens, UniProt P51449)
T1 construct: made in house; host or cells: E. coli
T1 sequence (P51449 262-507): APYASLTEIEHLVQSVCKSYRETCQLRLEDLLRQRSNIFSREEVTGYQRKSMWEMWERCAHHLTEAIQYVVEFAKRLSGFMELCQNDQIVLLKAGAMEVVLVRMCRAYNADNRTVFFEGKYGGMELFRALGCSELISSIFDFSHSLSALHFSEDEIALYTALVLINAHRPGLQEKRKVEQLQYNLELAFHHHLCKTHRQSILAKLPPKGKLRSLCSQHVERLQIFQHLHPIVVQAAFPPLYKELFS
Assay: General RORγ SPA binding assay (competition with [3H]25-hydroxycholesterol)
Conditions: RORγ SPA binding assay, inhibition of [3H]25-hydroxycholesterol binding; read-out: IC50
Summary of the method: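 N-terminally His-tagged protein was expressed in E. coli and nickel-purified. Then 50 nM protein was preincubated with compound for 15 min at room temperature in PBS with 0.5% fatty acid free BSA, followed by radioligand for 15 min and copper His-tag SPA beads for 30 min. IC50 came from percent inhibition of binding.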

Row | IC50 | Compound
1 | 6.3 nM | Cc1nc(C)c(-c2nnc(-c3ccnc(C(F)(F)F)n3)o2)c(C2CCN(C(=O)Cc3c(F)cccc3F)CC2)n1 [Compound C5, 4-{1-[(2,6-Difluorophenyl)acetyl]piperidin-4-yl}-2,6-dimethyl-5-{5-[2-(trifluoromethyl)pyrimidin-4-yl]-1,3,4-oxadiazol-2-yl}pyrimidine]
2 | 8.9 nM | Cc1ncc(C(C)(O)COc2cncc(Cl)c2)c(C2CCN(C(=O)Cc3c(F)cccc3F)CC2)n1 (stereo not shown) [Compound D13, 1-(4-(5-(1-((5-chloropyridin-3-yl)oxy)-2-hydroxypropan-2-yl)-2-methylpyrimidin-4-yl)piperidin-1-yl)-2-(2,6-difluorophenyl)ethanone]
3 | 11 nM | Cc1ncc(C(C)(F)COc2cccc(C(F)(F)F)n2)c(C2CCN(C(=O)Nc3c(F)cccc3F)CC2)n1 (stereo not shown) [Compound E12, N-(2,6-Difluorophenyl)-4-[5-(1-fluoro-1-methyl-2-{[6-(trifluoromethyl)pyridin-2-yl]oxy}ethyl)-2-methylpyrimidin-4-yl]piperidine-1-carboxamide]
4 | 4380 nM | Cc1ncc(C(C)(O)CNc2ccn(C)n2)c(C2CCN(C(=O)Cc3c(F)cccc3F)CC2)n1 (stereo not shown) [Compound D10, 2-(2,6-difluorophenyl)-1-(4-(5-(2-hydroxy-1-((1-methyl-1H-pyrazol-3-yl)amino)propan-2-yl)-2-methylpyrimidin-4-yl)piperidin-1-yl)ethanone]
5 | 111 nM | Cc1nc(C)c(-c2ncc(-c3cccc(Cl)c3)o2)c(C2CCN(C(=O)Nc3c(F)cccc3F)CC2)n1 [Compound C67, 4-{5-[5-(3-Chlorophenyl)-1,3-oxazol-2-yl]-2,6-dimethylpyrimidin-4-yl}-N-(2,6-difluorophenyl)piperidine-1-carboxamide]
6 | 235 nM | Cc1nc(C)c(-c2nnc(-c3ccnc(C(F)(F)F)n3)o2)c(C2CCN(C(=O)C(C)c3c(F)cccc3F)CC2)n1 (stereo not shown) [Compound C26, 2-(2,6-difluorophenyl)-1-(4-(2,6-dimethyl-5-(5-(2-(trifluoromethyl)pyrimidin-4-yl)-1,3,4-oxadiazol-2-yl)pyrimidin-4-yl)piperidin-1-yl)propan-1-one]
7 | 14 nM | CC(=O)Nc1ncc(C(C)(O)COc2ccnc(C(F)(F)F)n2)c(C2CCN(C(=O)Cc3c(F)cccc3F)CC2)n1 (stereo not shown) [Compound D33, N-[4-{1-[(2,6-Difluorophenyl)acetyl]piperidin-4-yl}-5-(1-hydroxy-1-methyl-2-{[2-(trifluoromethyl)pyrimidin-4-yl]oxy}ethyl)pyrimidin-2-yl]acetamide]
8 | 6.1 nM | Cc1ncc(C(C)(O)CNc2cccc(C(F)(F)F)c2)c(C2CCN(C(=O)Cc3c(F)cccc3F)CC2)n1 (stereo not shown) [Compound D4, 2-(2,6-difluorophenyl)-1-(4-(5-(2-hydroxy-1-((3-(trifluoromethyl)phenyl)amino)propan-2-yl)-2-methylpyrimidin-4-yl)piperidin-1-yl)ethanone]

More lines, now with the values behind:

Row | Compound | IC50
9 | C/C(=N/Oc1cccc(Cl)c1)c1cnc(C)nc1C1CCN(C(=O)Cc2c(F)cccc2F)CC1 [Compound B6, (Z)-1-(4-(5-(1-((3-chlorophenoxy)imino)ethyl)-2-methylpyrimidin-4-yl)piperidin-1-yl)-2-(2,6-difluorophenyl)ethanone] | 1930 nM
10 | Cc1ncc(/C=N/Oc2cccc(C(F)(F)F)c2)c(C2CCN(C(=O)Cc3c(F)cccc3F)CC2)n1 [Compound B30, (E)-4-(1-(2-(2,6-Difluorophenyl)acetyl)piperidin-4-yl)-2-methylpyrimidine-5-carbaldehyde O-3-(trifluoromethyl)phenyl oxime] | 9.7 nM
11 | Cc1ncc(/C(CO)=N\Oc2ccnc(C(F)(F)F)n2)c(C2CCN(C(=O)Cc3c(F)cccc3F)CC2)n1 [Compound B26, (E)-2-(2,6-difluorophenyl)-1-(4-(5-(2-hydroxy-1-(((2-(trifluoromethyl)pyrimidin-4-yl)oxy)imino)ethyl)-2-methylpyrimidin-4-yl)piperidin-1-yl)ethanone] | 95 nM
12 | O=C(NCc1ccc(Cl)c(Cl)c1)c1cncnc1C1CCN(C(=O)Cc2c(Cl)cccc2Cl)CC1 [Compound A65, N-(3,4-dichlorobenzyl)-4-(1-(2-(2,6-dichlorophenyl)acetyl)piperidin-4-yl)pyrimidine-5-carboxamide] | 69 nM
13 | Cc1ncc(C(=O)NCc2cccc(Cl)c2)c(C2CCN(C(=O)Cc3c(F)cccc3F)CC2)n1 [Compound A40, N-(3-chlorobenzyl)-4-(1-(2-(2,6-difluorophenyl)acetyl)piperidin-4-yl)-2-methylpyrimidine-5-carboxamide] | 5.8 nM
14 | Cc1cc(C)cc(CN(C)C(=O)c2cnc(C)nc2C2CCN(C(=O)Cc3c(F)cccc3F)CC2)c1 [Compound A113, 4-(1-(2-(2,6-Difluorophenyl)acetyl)piperidin-4-yl)-N-(3,5-dimethylbenzyl)-N,2-dimethylpyrimidine-5-carboxamide] | 338 nM
15 | Cc1cc(C)cc(CNC(=O)c2cnc(C)nc2C2CCN(C(=O)c3ccccc3F)CC2)c1 [Compound A23, N-(3,5-dimethylbenzyl)-4-(1-(2-fluorobenzoyl)piperidin-4-yl)-2-methylpyrimidine-5-carboxamide] | 254 nM
16 | Cc1ncc(C(=O)NCc2ccc(Cl)c(Cl)c2)c(C2CCN(C(=O)Cc3c(F)cccc3F)CC2)n1 [Compound A2, N-(3,4-dichlorobenzyl)-4-(1-(2-(2,6-difluorophenyl)acetyl)piperidin-4-yl)-2-methylpyrimidine-5-carboxamide] | 6.8 nM
17 | COc1ccccc1OC(=O)N1CCC(c2nc(N)nc(C)c2-c2nnc(-c3ccnc(C(F)(F)F)n3)o2)CC1 [Compound C57, 2-(methyloxy)phenyl 4-(2-amino-6-methyl-5-{5-[2-(trifluoromethyl)pyrimidin-4-yl]-1,3,4-oxadiazol-2-yl}pyrimidin-4-yl)piperidine-1-carboxylate] | 23.6 nM
18 | Cc1ncc(/C(CF)=N/Oc2ccnc(C(F)(F)F)n2)c(C2CCN(C(=O)Cc3c(F)cccc3F)CC2(F)F)n1 (stereo not shown) [Compound B35, (Z)-1-(3,3-Difluoro-4-(5-(2-fluoro-1-(2-(trifluoromethyl)pyrimidin-4-yloxyimino)ethyl)-2-methylpyrimidin-4-yl)piperidin-1-yl)-2-(2,6-difluorophenyl)ethanone] | 14.2 nM
19 | Cc1ncc(C(=O)NCc2cnc(Cl)s2)c(C2CCN(C(=O)Cc3c(F)cccc3F)CC2)n1 [Compound A72, N-((2-chlorothiazol-5-yl)methyl)-4-(1-(2-(2,6-difluorophenyl)acetyl)piperidin-4-yl)-2-methylpyrimidine-5-carboxamide] | 317 nM
20 | Cc1cc(C)cc(CNC(=O)c2cnc(C)nc2C2CCN(C(=O)c3ncccc3Cl)CC2)c1 [Compound A33, 4-(1-(3-chloropicolinoyl)piperidin-4-yl)-N-(3,5-dimethylbenzyl)-2-methylpyrimidine-5-carboxamide] | 1950 nM
21 | COc1cccc(O/N=C(\C)c2cnc(C)nc2C2CCN(C(=O)Cc3c(F)cccc3F)CC2)c1 [Compound B21, (E)-2-(2,6-difluorophenyl)-1-(4-(5-(1-((3-methoxyphenoxy)imino)ethyl)-2-methylpyrimidin-4-yl)piperidin-1-yl)ethanone] | 23.7 nM
22 | O=C(NCc1cccc(Cl)c1)c1cnc(NCCO)nc1C1CCN(C(=O)Cc2c(F)cccc2F)CC1 [Compound A87, N-(3-chlorobenzyl)-4-(1-(2-(2,6-difluorophenyl)acetyl)piperidin-4-yl)-2-((2-hydroxyethyl)amino)pyrimidine-5-carboxamide] | 1.7 nM
